Where “and” joins values, the source holds several entries; their conditions need not be identical. Identical values can stand only once. Like-named read-outs stand apart in the source and are kept apart here.
Assays:
OMP decarboxylase = conditions: for PYR concentration: 1 μM; for OMP concentration / Orotate concentration / UMP concentration: PYR 1 μM
advanced lung cancer = conditions: weekly rapid iv injection, previously treated patients with advanced lung cancer; cited from earlier work
SARS-CoV-2 = experiment: microbe, parasite or virus in culture; format: cell-based
in vitro = conditions: monkey
HRV1A strain 2060 = experiment: Rhinovirus antiviral assay, inhibition of virus-induced cell killing (XTT) in H1-HeLa cells; format: cell-based; conditions: Enterovirus
[1] = patient with papillary carcinoma of the thyroid; cited from earlier work
[2] = daily times 5 schedule; cited from earlier work
[3] = remdesivir dose response, brequinar 0.000 μM
[4] = remdesivir dose response, brequinar 0.078 μM
[5] = remdesivir dose response, brequinar 0.156 μM
[6] = remdesivir dose response, brequinar 0.313 μM
[7] = remdesivir dose response, brequinar 1.250 μM

For `NC(=O)c1[nH]nc([C@@H]2O[C@H](CO)[C@@H](O)[C@H]2O)c1O` [PYR, 5-[(2S,3R,4S,5R)-3,4-dihydroxy-5-(hydroxymethyl)oxolan-2-yl]-4-hydroxy-1H-pyrazole-3-carboxamide], which PYR concentration (OMP decarboxylase; 1 h) is on record?
The PYR concentration was 0 ng/mL.

What about the PYR concentration (OMP decarboxylase; 4 h) of the same compound?
The PYR concentration was 0 ng/mL.

And the OMP concentration (OMP decarboxylase; Cells, 1 hr)?
The OMP concentration was 0 ng/mL.

What about the Orotate concentration (OMP decarboxylase; Cells, 1 hr) of the same compound?
Its Orotate concentration is 339 ng/mL.

What about the UMP concentration (OMP decarboxylase; Cells, 1 hr) of the same compound?
Its UMP concentration is 552 ng/mL.

And the OMP concentration (OMP decarboxylase; Cells, 4 hr)?
The OMP concentration was 10 ng/mL.

And the Orotate concentration (OMP decarboxylase; Cells, 4 hr)?
Its Orotate concentration is 1170 ng/mL.

And the UMP concentration (OMP decarboxylase; Cells, 4 hr)?
Its UMP concentration is 408 ng/mL.

What about the OMP concentration (OMP decarboxylase; Cells, 24 hr) of the same compound?
The OMP concentration was 11 ng/mL.

What about the Orotate concentration (OMP decarboxylase; Cells, 24 hr) of the same compound?
Its Orotate concentration is 1220 ng/mL.

What about the UMP concentration (OMP decarboxylase; Cells, 24 hr) of the same compound?
The UMP concentration was 326 ng/mL.

And the OMP concentration (OMP decarboxylase; Supernatant, 24 hr)?
Its OMP concentration is 43 ng/mL.

What about the Orotate concentration (OMP decarboxylase; Supernatant, 24 hr) of the same compound?
The Orotate concentration was 10005 ng/mL.

And the UMP concentration (OMP decarboxylase; Supernatant, 24 hr)?
Its UMP concentration is 69 ng/mL.

And the therapeutic value (advanced lung cancer)?
Its therapeutic value is “little therapeutic value as a single agent”.

With `NC(=O)c1ncn([C@@H]2O[C@H](CO)[C@@H](O)[C@H]2O)n1` [ribavirin] as the compound, how does the IC50 (SARS-CoV-2; Severe acute respiratory syndrome coronavirus 2, Vero C1008, read-out: IC50: Concentration inhibiting 50% of the virus-induced CPE compared to the no infection control) read?
The IC50 was > 50 µM.

And the EC90 (SARS-CoV-2; Severe acute respiratory syndrome coronavirus 2, Vero C1008; Vero E6, MOI of 0.05)?
The EC90 was > 50 µM.

And the CC50 (in vitro; CC50)?
Its CC50 is > 50 µM.

For `CCOC(=O)/C=C/[C@H](C[C@@H]1CCNC1=O)NC(=O)[C@@H](CC(=O)[C@@H](NC(=O)c1cc(C)on1)C(C)C)Cc1ccc(F)cc1` [Rupintrivir], which EC50 (HRV1A strain 2060) is on record?
The EC50 was 0.0107 µM.

Which “E(Max)” value (SARS-CoV-2) does the source give for `CCC(CC)COC(=O)[C@H](C)N[P@](=O)(OC[C@H]1O[C@@](C#N)(c2ccc3c(N)ncnn23)[C@H](O)[C@@H]1O)Oc1ccccc1` [remdesivir] here?
The value was 100.

What about the “E(Max) of remdesivir” value (SARS-CoV-2) of the same compound?
The value was 95.33 and 96.37 and 95.10.

And the “Max Data” value (SARS-CoV-2)?
Its value is 104.7% and 106.8% and 101.9%.

What about the “Min Data” value (SARS-CoV-2) of the same compound?
Its value is 75.9% and 78.9% and 69.5%.

And the “increase in activity of remdesivir” value (SARS-CoV-2)?
The value was > 6.8 fold.

And the EC90 (SARS-CoV-2; Severe acute respiratory syndrome coronavirus 2, Vero C1008)?
Its EC90 is 1.4 µM.

And the EC50 (SARS-CoV-2; Severe acute respiratory syndrome coronavirus 2, Vero C1008, brequinar 0.000 μM; read-out: EC50 of remdesivir)?
Its EC50 is 0.801 µM.

And the IC50 (SARS-CoV-2; Severe acute respiratory syndrome coronavirus 2, Vero C1008, brequinar 0.000 μM; read-out: IC50 of remdesivir)?
The IC50 was 0.823 µM.

And the EC50 (SARS-CoV-2; Severe acute respiratory syndrome coronavirus 2, Vero C1008, brequinar 0.078 μM; read-out: EC50 of remdesivir)?
The EC50 was 0.277 µM.

What about the IC50 (SARS-CoV-2; Severe acute respiratory syndrome coronavirus 2, Vero C1008, brequinar 0.078 μM; read-out: IC50 of remdesivir) of the same compound?
Its IC50 is 0.292 µM.

And the EC50 (SARS-CoV-2; Severe acute respiratory syndrome coronavirus 2, Vero C1008, brequinar 0.156 μM; read-out: EC50 of remdesivir)?
Its EC50 is 0.186 µM.

And the IC50 (SARS-CoV-2; Severe acute respiratory syndrome coronavirus 2, Vero C1008, brequinar 0.156 μM; read-out: IC50 of remdesivir)?
Its IC50 is 0.102 µM.

And the EC50 (SARS-CoV-2; Severe acute respiratory syndrome coronavirus 2, Vero C1008, brequinar 0.313 μM; extrapolated value; read-out: EC50 of remdesivir)?
The EC50 was 0.003 µM.

And the IC50 (SARS-CoV-2; Severe acute respiratory syndrome coronavirus 2, Vero C1008, brequinar 0.313 μM; extrapolated value; read-out: IC50 of remdesivir)?
Its IC50 is 0.003 µM.

And the EC50 (SARS-CoV-2; Severe acute respiratory syndrome coronavirus 2, Vero C1008, brequinar 1.250 μM; read-out: EC50 of remdesivir)?
Its EC50 is < 0.0195 µM.

What about the IC50 (SARS-CoV-2; Severe acute respiratory syndrome coronavirus 2, Vero C1008, brequinar 1.250 μM; read-out: IC50 of remdesivir) of the same compound?
The IC50 was < 0.0195 µM.

What about the EC50 (SARS-CoV-2; Severe acute respiratory syndrome coronavirus 2, Vero C1008, read-out: EC50 of remdesivir) of the same compound?
The EC50 was < 0.0195 µM.

What about the IC50 (SARS-CoV-2; Severe acute respiratory syndrome coronavirus 2, Vero C1008, read-out: IC50 of remdesivir) of the same compound?
Its IC50 is < 0.0195 µM.

And the IC50 (SARS-CoV-2; Severe acute respiratory syndrome coronavirus 2, Vero C1008, read-out: remdesivir concentration to suppress viral replication to 50%)?
Its IC50 is 0.1 µM.

What about the EC50 (SARS-CoV-2; Severe acute respiratory syndrome coronavirus 2, Vero C1008; read-out: EC50: Concentration inhibiting 50% of the maximum CPE-protection effect of the compound (Emax)) of the same compound?
Its EC50 is 0.82 µM.

What about the IC50 (SARS-CoV-2; Severe acute respiratory syndrome coronavirus 2, Vero C1008; read-out: IC50: Concentration inhibiting 50% of the virus-induced CPE compared to the no infection control) of the same compound?
Its IC50 is 0.82 µM.

And the “SI50: Selective Index 50 = CC50/IC50” value (SARS-CoV-2; Vero E6)?
Its value is >61.

And the “E(Max) of remdesivir” value (SARS-CoV-2; brequinar 0.000 μM)?
The value was 92.02.

What about the “E(Max) of remdesivir” value (SARS-CoV-2; brequinar 0.078 μM) of the same compound?
The value was 97.37.

And the “E(Max) of remdesivir” value (SARS-CoV-2; brequinar 0.156 μM)?
The value was 122.66.

What about the “E(Max) of remdesivir” value (SARS-CoV-2; brequinar 0.313 μM) of the same compound?
Its value is 97.35.

What about the “E(Max) of remdesivir” value (SARS-CoV-2; brequinar 1.250 μM) of the same compound?
The value was 100.22.

What about the “Max Data” value (SARS-CoV-2; [3]) of the same compound?
Its value is 97.1%.

And the “Min Data” value (SARS-CoV-2; [3])?
The value was −11%.

What about the “Max Data” value (SARS-CoV-2; [4]) of the same compound?
Its value is 94.4%.

What about the “Min Data” value (SARS-CoV-2; [4]) of the same compound?
The value was −1.9%.

What about the “Max Data” value (SARS-CoV-2; [5]) of the same compound?
The value was 102.6%.

And the “Min Data” value (SARS-CoV-2; [5])?
The value was 22.1%.

What about the “Max Data” value (SARS-CoV-2; [6]) of the same compound?
The value was 103.8%.

And the “Min Data” value (SARS-CoV-2; [6])?
The value was 55.4%.

And the “Max Data” value (SARS-CoV-2; [7])?
Its value is 105.1%.

And the “Min Data” value (SARS-CoV-2; [7])?
The value was 80.1%.

What about the CC50 (in vitro; CC50, Vero E6) of the same compound?
Its CC50 is > 50 µM.

What about the CC50 (in vitro; CC50 of remdesivir) of the same compound?
Its CC50 is > 50 µM.

What about the CC50 (in vitro; CC50 of remdesivir, brequinar 0.000 μM) of the same compound?
Its CC50 is > 25 µM.

What about the CC50 (in vitro; CC50 of remdesivir, brequinar 0.078 μM) of the same compound?
Its CC50 is > 50 µM.

What about the CC50 (in vitro; CC50 of remdesivir, brequinar 0.156 μM) of the same compound?
Its CC50 is > 50 µM.

And the CC50 (in vitro; CC50 of remdesivir, brequinar 0.313 μM)?
The CC50 was > 50 µM.

What about the CC50 (in vitro; CC50 of remdesivir, brequinar 1.250 μM) of the same compound?
Its CC50 is > 50 µM.

And the “cytotoxicity of the co-treatment” value (Vero E6 cells; remdesivir co-treatment with brequinar)?
The value was “No enhanced cytotoxicity was detected”.

What does the source list for `CC(C)C[C@H](NC(=O)OCc1ccccc1)C(=O)N[C@@H](CC1CCNC1=O)C(O)S(=O)(=O)[O-].[Na+]` (stereo partly drawn) [GC-376]?
E(Max) (SARS-CoV-2): 100; EC90 (SARS-CoV-2): 5.73 µM; EC50 (SARS-CoV-2; read-out: EC50: Concentration inhibiting 50% of the maximum CPE-protection effect of the compound (Emax)): 2.04 µM; IC50 (SARS-CoV-2; read-out: IC50: Concentration inhibiting 50% of the virus-induced CPE compared to the no infection control): 2.04 µM; CC50 (Vero E6 cells): > 50 µM

What does the source list for `Cc1c(-c2ccc(-c3ccccc3F)cc2)nc2ccc(F)cc2c1C(=O)O` [Brequinar sodium]?
tumor response [1]: One mixed response; maximum tolerated dose [2]: 300 mg/m^2; recommended phase II dose [2]: 250 mg/m^2
